Common to all, as to type: cell-based, human
One experiment relates to A549. Kind of experiment: Crystal Violet proliferation assay, BAL27862-resistant versus parental A549. As to conditions: for Resistance factor (ratio IC50 BAL27862-resistant cell line variant versus IC50 parental cell line): 72 hours, Crystal Violet. The method, then: (§1) BAL27862-resistant sublines of human non-small cell lung cancer (H460 ATCC reference HTB-177; A549 ATCC reference CCL-185), ovarian cancer (SKOV3 ATCC reference HTB-77) and T-cell leukemia (Jurkat ATCC reference TIB-152) cell lines were generated by long-term selection in complete cell culture medium (RPMI-1640 containing 10% FBS; Sigma-Aldrich) by increasing BAL27862 concentrations in a stepwise fashion. […] The resistance factors were determined for the adherent cell lines H460, A549 and SKOV3 by measuring proliferation using the Crystal Violet assay, whereas for the suspension Jurkat cell line cell death was measured using FACS. The resistant sub lines were expanded at the highest tolerated BAL27862 concentration and subsequently frozen and stored in liquid nitrogen.
(§2) A549 (2000 cells/well), H460 (1000 cells/well) and SKOV3 (2000 cells/well) cells were seeded in 96 well plates. […] After medium was removed, cells were fixed and stained by adding 50 μl Crystal Violet stain (0.2% Crystal Violet in 50% Methanol) per well. Plates were incubated for 1 hour at room temperature. Subsequently the stain was decanted and plates were washed 4 times with double-distilled water. Plates were air-dried for several hours. Stain was dissolved by adding 100 μl buffer (0.1 M Tris pH 7.5, 0.2% SDS, 20% Ethanol) per well and shaking the plates. Absorbance at 590 nm was measured using a SpectraMax M2e plate reader (Molecular Devices).
(§3) Antiproliferative IC50 and cell death EC50 values were calculated from concentration response curves using GraphPad Prism software. Resistance factors were calculated as a ratio of the IC50 or EC50 in the resistant line variant versus the IC50 or EC50 in the parental line.

The next experiment deals with H460. Kind of experiment: Crystal Violet proliferation assay, BAL27862-resistant versus parental H460. As to conditions: for Resistance factor (ratio IC50 BAL27862-resistant cell line variant versus IC50 parental cell line): 72 hours, Crystal Violet. The method, then:
as §1, §2, §3

The test system of the next experiment is SKOV3. Kind of experiment: Crystal Violet proliferation assay, BAL27862-resistant versus parental SKOV3. As to conditions: for Resistance factor (ratio IC50 BAL27862-resistant cell line variant versus IC50 parental cell line): 72 hours, Crystal Violet. The method, then:
as §1, §2, §3

For another experiment, the system named is BAL27862-resistant cells. Kind of experiment: Response of BAL27862-resistant lines to other microtubule agents (all lines tested). As to conditions: all lines tested (Table 1). How it is done: as §1
A549 (2000 cells/well), H460 (1000 cells/well) and SKOV3 (2000 cells/well) cells were seeded in 96 well plates. […] After medium was removed, cells were fixed and stained by adding 50 μl Crystal Violet stain (0.2% Crystal Violet in 50% Methanol) per well. […] Absorbance at 590 nm was measured using a SpectraMax M2e plate reader (Molecular Devices).
as §3

Another experiment deals with A549 NSCLC cells. Kind of experiment: Immunofluorescent staining of microtubules (anti-alpha tubulin). As to conditions: for Microtubule phenotype of mitotic or G2/M arrested cells: 24 hours, 50 nM BAL27862, 80 nM Compound B, 20 nM Compound C. The method, then:
(§4) A549 human non-small cell lung cancer (NSCLC, ATCC reference number CCL-185) cells, HeLa cervical cancer cells (ATCC reference number CCL-2) and SKBR3 breast carcinoma cells (ATCC reference number HTB-30) were seeded at densities of 50% on round microscope coverslips and cultured for 24 hours in RPMI-1640 containing 10% FCS (also referred to as FBS) at 37° C., 5% CO2. Compounds to be tested were dissolved in DMSO. The cell culture medium was replaced with medium containing the diluted compound(s) (paclitaxel, vinblastine, colchicine and nocodazole were purchased from Sigma-Aldrich) or vehicle. After treatment for the times indicated in the Brief Description of the Figures, coverslips were washed and cells were fixed in methanol/acetone (1:1) for 5 minutes at room temperature and subsequently incubated in blocking buffer (0.5% BSA and 0.1% TX-100 in PBS) for 30 minutes at room temperature. Specimens were then incubated with anti-alpha tubulin antibody (Sigma, 1:2000) for 1 hour at room temperature in blocking buffer. After several washing steps cells were incubated with AlexaFluor-488 goat-anti-mouse IgG (Molecular Probes, 1:3000) for 1 hour at room temperature followed by several washing steps with blocking buffer. Specimens were then mounted with ProLong Gold antifade (Molecular Probes) sealed with nail polish and examined with a Leica immunofluorescence microscope. Images were captured with a cooled CCD-camera and processed by ImageJ software.

The subject of another experiment is Jurkat. Kind of experiment: FACS cell death assay, BAL27862-resistant versus parental Jurkat cells expressing GFP. How it is done:
as §1, with “The resistant sub lines were expanded at the highest tolerated BAL27862 concentration and subsequently frozen and stored in liquid nitrogen.” left out
Jurkat cells stably expressing GFP (green fluorescence protein) were incubated with increasing BAL27862 concentrations in culture medium for 72 hours and then analyzed by FACS (excitation at 488 nm, emission at 525 nm). Dying or dead cells, showing a decreased fluorescence activity in comparison to living cells, were quantified (Green fluorescent protein as a novel tool to measure apoptosis and necrosis. Strebel et al, 2001, Cytometry 43(2): 126-133).
as §3

For experiment [1], the system named is HeLa cervical cancer cells. Kind of experiment: Immunofluorescent staining of microtubules (anti-alpha tubulin). As to conditions: 24 hours, 50 nM BAL27862. How it is done:
as §4

In experiment [2] the test system is SKBR3 breast cancer cells. The description is as above. As to conditions: 24 hours, 50 nM BAL27862. The method, then: as §4

For `CC(=O)O[C@H]1C(=O)[C@@]2(C)[C@H]([C@H](OC(=O)c3ccccc3)[C@]3(O)C[C@H](OC(=O)[C@H](O)[C@@H](NC(=O)c4ccccc4)c4ccccc4)C(C)=C1C3(C)C)[C@]1(OC(C)=O)CO[C@@H]1C[C@@H]2O` [Paclitaxel, paclitaxel], the “Resistance factor (ratio IC50 BAL27862-resistant cell line variant versus IC50 parental cell line)” value with A549 is given as 0.06; with H460 it was 0.3; with SKOV3 (SKOV3 resistant 1) it was 0.4; in the experiment with SKOV3 (SKOV3 resistant 2), 0.5. In addition, the “Sensitivity of BAL27862-resistant lines compared to parental lines” value in the experiment on BAL27862-resistant cells is given as “increased sensitivity”.

Consider `COc1cc2c(c(OC)c1OC)-c1ccc(OC)c(=O)cc1[C@@H](NC(C)=O)CC2` [Colchicine, colchicine], for which the “Resistance factor (ratio IC50 BAL27862-resistant cell line variant versus IC50 parental cell line)” value with A549 amounted to 0.9; in the experiment with H460 it was 1.6; with SKOV3 (SKOV3 resistant 1), 2.0; in the experiment on SKOV3 (SKOV3 resistant 2), 2.8.

Take `N#CCCNc1nonc1-c1nc2ccccc2n1CC(=O)c1ccc(N)nc1` [Compound C, 3-(4-{1-[2-(6-Amino-pyridin-3-yl)-2-oxo-ethyl]-1H-benzoimidazol-2-yl}-furazan-3-ylamino)-propionitrile]: the “Microtubule phenotype of mitotic or G2/M arrested cells” value in the experiment on A549 NSCLC cells is “dot-like structures”.

On to `COC(=O)Nc1nc2ccc(C(=O)c3cccs3)cc2[nH]1` [Nocodazole, nocodazole], for which the “Resistance factor (ratio IC50 BAL27862-resistant cell line variant versus IC50 parental cell line)” value in the experiment on A549 is 1.6; in the experiment on H460, 1.3; with SKOV3 (SKOV3 resistant 1), 3.6; in the experiment with SKOV3 (SKOV3 resistant 2), 3.9.

Take `N#CCCNc1nonc1-c1nc2ccccc2n1CC(=O)c1ccc(N)cc1` [BAL27862, 3-(4-{1-[2-(4-Amino-phenyl)-2-oxo-ethyl]-1H-benzoimidazol-2-yl}-furazan-3-ylamino)-propionitrile]: the “Resistance factor versus parental line (based on IC50)” value in the experiment with A549 worked out at 3.0 fold; in the experiment with H460, 5.3 fold; in the experiment on SKOV3 (SKOV3 resistant 1), 7.6 fold; with SKOV3 (SKOV3 resistant 2) it was 11.6 fold. Moreover, the “Resistance factor (ratio IC50 BAL27862-resistant cell line variant versus IC50 parental cell line)” value in the experiment with A549 came out at 3.0; in the experiment on H460, 5.3; in the experiment on SKOV3 (SKOV3 resistant 1), 7.6; in the experiment on SKOV3 (SKOV3 resistant 2), 11.6. Besides, the “Resistance factor versus parental line (based on EC50)” value with Jurkat came out at 22.5 fold. Moreover, the “Resistance factor (ratio EC50 BAL27862-resistant cell line variant versus EC50 parental cell line)” value in the experiment on Jurkat (72 hours, cell death by FACS) is recorded as 22.5. The “Microtubule phenotype on combination treatment” value in the experiment on A549 NSCLC cells (24 hours vinblastine, colchicine, paclitaxel or nocodazole, BAL27862 added for the last 4 hours) was “disruption of the microtubule structures”. Further, the “Microtubule phenotype of mitotic or G2/M arrested cells” value (with A549 NSCLC cells; in experiment [1]; in experiment [2]) was “dot-like structures” each time.

As for `Nc1ccc(C(=O)Cn2c(-c3nonc3N)nc3ccccc32)cc1` [Compound B, 2-[2-(4-Amino-furazan-3-yl)-benzoimidazol-1-yl]-1-(4-amino-phenyl)-ethanone], in the experiment on A549 NSCLC cells, the “Microtubule phenotype of mitotic or G2/M arrested cells” value is reported as “dot-like structures”.

On to `CC[C@]1(O)C[C@@H]2CN(CCc3c([nH]c4ccccc34)[C@@](C(=O)OC)(c3cc4c(cc3OC)N(C)[C@H]3[C@@](O)(C(=O)OC)[C@H](OC(C)=O)[C@]5(CC)C=CCN6CC[C@]43[C@@H]65)C2)C1` [Vinblastine, vinblastine], for which the “Resistance factor (ratio IC50 BAL27862-resistant cell line variant versus IC50 parental cell line)” value was 2.3 in the experiment on A549, 4.6 in the experiment on H460 and 15.7 in the experiment on SKOV3 (SKOV3 resistant 1).

These data come from patent US10067120B2, “Use of acetylated tubulin as a biomarker of drug response to furazanobenzimidazoles” (Basilea Pharmaceutica AG, priority 2011, dated 2018).
